Assay results reported in patent US6355799B1, “Substituted benzene compounds, process for their preparation, and herbicidal and defoliant compositions containing them” (ISK Americas Incorporated, priority 1997, dated 2002).

Legend:
Format in all cases: in vivo
[1] = tested on: field corn (Zea mays L., var. Dekalb 535, CORN); experiment: Post-emerge test, crop safety; conditions: post-emerge, 14 days after application, rating scale 0-100
Description: (§1) A standard greenhouse herbicide activity screening system was used to evaluate the herbicidal efficacy and crop safety of these test compounds. Seven broadleaf weed species including redroot pigweed (Amaranthus retroflexus, AMARE, velvetleaf (Abutilon theophrasti, ABUTH), sicklepod (Cassia obtusifolia, CASOB), ivyleaf morningglory (Ipomoea hederacea, IPOHE), lambsquarters (Chenopodium album, CHEAL), common ragweed (Ambrosia artemisizfolia L., AMBEL), and cocklebur (Xanthium strumarium, XANST) were used as test species. Four grass weed species including green foxtail (Setaria viridis, SETVI), barnyardgrass (Echinochloa crus-galli, ECHCG), johnsongrass (Sorghum halepense, SORHA), and large crabgrass (Digitaria sanguinalis, DIGSA) were also used. In addition, three crop species, field corn (Zea mays L., var. Dekalb 535, CORN), soybean (Glycine max L., var. Pella 86, SOY), and is upland rice (Oryza sp., var. Tebonnet, RICE) were included.
(§2) All plants were grown in 10 cm square plastic pots which were filled with a sandy loam soil mix. For pre-emerge tests, seeds were planted one day prior to application of the test compounds. For post-emerge tests, seeds were planted 8-21 days prior to the test to allow emergence and good foliage development prior to application of the test substances. At the time of the post-emerge application, plants of all species were usually at the 2-3 leaf stage of development.
(§3) All test compounds Were dissolved in acetone and applied to the test units in a volume of 187 l /ha. Test materials were applied at rates ranging from 15 g ai/ha to 1000 g ai/ha using a track sprayer equipped with a TJ8001E even flow flat fan spray nozzle. Plants were arranged on a shelf so that the top of the canopy (post-emerge) or top of the soil surface (pre-emerge) was 40-45 cm below the nozzle. Pressurized air was used to force the test solution through the nozzle as it was mechanically advanced (via electrically driven chain drive) over the top of all test plants/pots. This application simulates a typical commercial field herbicide application.
(§4) In the post-emerge test, a commercial non-ionic surfactant was also included (0.25% v/v) to enhance wetting of the leaf surfaces of target plants. Immediately after application, test units of the pre-emerge applications were watered at the soil surface to incorporate the test materials. Subsequently, these test units were bottom-watered. Post-emerge test units were always bottom-watered.
(§5) At 14 days after application of the test materials, phytotoxicity ratings were recorded. A rating scale of 0-100 was used as previously described in Research Methods in Weed Science, 2nd edition, B. Truelove, Ed., Southern Weed Science Society, Auburn University, Auburn, Ala. 1977. Briefly, “0” corresponds to no damage and “100” corresponds to complete death of all plants in the test unit. This scale was used both to determine efficacy against weed species and damage to crop species. Herbicide activity data for various compounds of this invention, which are shown by compound No. in Tables 1-8, are shown in Tables 11 and 12.

[2] = tested on: upland rice (Oryza sp., var. Tebonnet, RICE); experiment: Post-emerge test, crop safety; conditions: post-emerge, 14 days after application, rating scale 0-100
Description: as §1, §2, §3, §4, §5

[3] = tested on: green foxtail (Setaria viridis, SETVI); experiment: Pre-emerge test, greenhouse herbicide activity screening; conditions: pre-emerge, 14 days after application, scale 0-100
Description: as §1, §2, §3, §4, §5

[4] = tested on: lambsquarters (Chenopodium album, CHEAL); experiment: as above; conditions: pre-emerge, 14 days after application, scale 0-100
Description: as §1, §2, §3, §4, §5

[5] = tested on: large crabgrass (Digitaria sanguinalis, DIGSA); experiment: as above; conditions: pre-emerge, 14 days after application, scale 0-100
Description: as §1, §2, §3, §4, §5

[6] = tested on: ivyleaf morningglory (Ipomoea hederacea, IPOHE); experiment: as above; conditions: pre-emerge, 14 days after application, scale 0-100
Description: as §1, §2, §3, §4, §5

[7] = tested on: barnyardgrass (Echinochloa crus-galli, ECHCG); experiment: as above; conditions: pre-emerge, 14 days after application, scale 0-100
Description: as §1, §2, §3, §4, §5

[8] = tested on: velvetleaf (Abutilon theophrasti, ABUTH); experiment: as above; conditions: pre-emerge, 14 days after application, scale 0-100
Description: as §1, §2, §3, §4, §5

[9] = tested on: sicklepod (Cassia obtusifolia, CASOB); experiment: as above; conditions: pre-emerge, 14 days after application, scale 0-100
Description: as §1, §2, §3, §4, §5

[10] = tested on: green foxtail (Setaria viridis, SETVI); experiment: Post-emerge test, greenhouse herbicide activity screening; conditions: post-emerge, 14 days after application, rating scale 0-100
Description: as §1, §2, §3, §4, §5

[11] = tested on: lambsquarters (Chenopodium album, CHEAL); experiment: as above; conditions: post-emerge, 14 days after application, rating scale 0-100
Description: as §1, §2, §3, §4, §5

[12] = tested on: redroot pigweed (Amaranthus retroflexus, AMARE); experiment: as above; conditions: post-emerge, 14 days after application, rating scale 0-100
Description: as §1, §2, §3, §4, §5

[13] = tested on: large crabgrass (Digitaria sanguinalis, DIGSA); experiment: as above; conditions: post-emerge, 14 days after application, rating scale 0-100
Description: as §1, §2, §3, §4, §5

[14] = tested on: ivyleaf morningglory (Ipomoea hederacea, IPOHE); experiment: as above; conditions: post-emerge, 14 days after application, rating scale 0-100
Description: as §1, §2, §3, §4, §5

[15] = tested on: barnyardgrass (Echinochloa crus-galli, ECHCG); experiment: as above; conditions: post-emerge, 14 days after application, rating scale 0-100
Description: as §1, §2, §3, §4, §5

[16] = tested on: velvetleaf (Abutilon theophrasti, ABUTH); experiment: as above; conditions: post-emerge, 14 days after application, rating scale 0-100
Description: as §1, §2, §3, §4, §5

[17] = tested on: sicklepod (Cassia obtusifolia, CASOB); experiment: as above; conditions: post-emerge, 14 days after application, rating scale 0-100
Description: as §1, §2, §3, §4, §5

[18] = tested on: redroot pigweed (Amaranthus retroflexus, AMARE); experiment: Pre-emerge test, greenhouse herbicide activity screening; conditions: pre-emerge, 14 days after application, scale 0-100
How it was run: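 Compounds in acetone were track-sprayed at 187 l/ha, 15–1000 g ai/ha, onto sandy loam pots. Pre-emerge seeds were sown one day before spraying, with surface watering afterwards. Post-emerge plants were at the 2–3 leaf stage and sprayed with 0.25% v/v non-ionic surfactant. Injury was rated 0–100 at 14 days.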

[19] = tested on: field corn (Zea mays L., var. Dekalb 535, CORN); experiment: Pre-emerge test, crop safety; conditions: pre-emerge, 14 days after application, scale 0-100
How it was run: (§6)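 Compounds in acetone were track-sprayed at 15-1000 g ai/ha (187 l/ha) on sandy loam pots: pre-emerge one day after seeding, post-emerge at 2-3 leaf stage with 0.25% v/v non-ionic surfactant. Phytotoxicity was rated 14 days later on a 0 (no damage) to 100 (complete death) scale.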

[20] = tested on: upland rice (Oryza sp., var. Tebonnet, RICE); experiment: Pre-emerge test, crop safety; conditions: pre-emerge, 14 days after application, scale 0-100
How it was run: as §6

COc1c(Cl)cc(F)c(-n2c(=O)cc(C(F)(F)F)n(C)c2=O)c1NC(=O)C(C#N)=Cc1ccccc1 [2-136]
95: CHEAL phytotoxicity rating ([11]; 63 g ai/ha)
15: CORN phytotoxicity rating (crop damage) ([1]; 63 g ai/ha)
30: SETVI phytotoxicity rating ([10]; 250 g ai/ha)
0: phytotoxicity rating DIGSA ([5]; 63 g ai/ha) | phytotoxicity rating IPOHE ([6]; 63 g ai/ha) | phytotoxicity rating ECHCG ([7]; 63 g ai/ha) | phytotoxicity rating ECHCG ([7]; 250 g ai/ha) | phytotoxicity rating CASOB ([9]; 63 g ai/ha) | DIGSA phytotoxicity rating ([13]; 63 g ai/ha) | ECHCG phytotoxicity rating ([15]; 63 g ai/ha) | phytotoxicity rating CORN (crop damage) ([19]; 63 g ai/ha) | phytotoxicity rating CORN (crop damage) ([19]; 250 g ai/ha) | phytotoxicity rating RICE (crop damage) ([20]; 63 g ai/ha)
20: SETVI phytotoxicity rating ([10]; 63 g ai/ha) | DIGSA phytotoxicity rating ([13]; 250 g ai/ha)
80: phytotoxicity rating ABUTH ([8]; 63 g ai/ha) | IPOHE phytotoxicity rating ([14]; 63 g ai/ha)
40: phytotoxicity rating SETVI ([3]; 250 g ai/ha) | phytotoxicity rating CASOB ([9]; 250 g ai/ha) | phytotoxicity rating AMARE ([18]; 63 g ai/ha)
60: CASOB phytotoxicity rating ([17]; 63 g ai/ha)
5: RICE phytotoxicity rating (crop damage) ([2]; 63 g ai/ha)
100: phytotoxicity rating CHEAL ([4]; 250 g ai/ha) | phytotoxicity rating IPOHE ([6]; 250 g ai/ha) | phytotoxicity rating ABUTH ([8]; 250 g ai/ha) | CHEAL phytotoxicity rating ([11]; 250 g ai/ha) | AMARE phytotoxicity rating ([12]; 63 g ai/ha) | AMARE phytotoxicity rating ([12]; 250 g ai/ha) | IPOHE phytotoxicity rating ([14]; 250 g ai/ha) | ABUTH phytotoxicity rating ([16]; 63 g ai/ha) | ABUTH phytotoxicity rating ([16]; 250 g ai/ha) | CASOB phytotoxicity rating ([17]; 250 g ai/ha)
90: phytotoxicity rating CHEAL ([4]; 63 g ai/ha) | phytotoxicity rating AMARE ([18]; 250 g ai/ha)
10: CORN phytotoxicity rating (crop damage) ([1]; 250 g ai/ha) | RICE phytotoxicity rating (crop damage) ([2]; 250 g ai/ha) | phytotoxicity rating SETVI ([3]; 63 g ai/ha) | phytotoxicity rating DIGSA ([5]; 250 g ai/ha) | ECHCG phytotoxicity rating ([15]; 250 g ai/ha) | phytotoxicity rating RICE (crop damage) ([20]; 250 g ai/ha)

COc1c(Cl)cc(F)c(-n2c(=O)cc(C(F)(F)F)n(C)c2=O)c1NC(=O)COc1ccc(Cl)cc1 [2-135]
90: phytotoxicity rating ABUTH ([8]; 63 g ai/ha)
25: CORN phytotoxicity rating (crop damage) ([1]; 250 g ai/ha)
40: RICE phytotoxicity rating (crop damage) ([2]; 250 g ai/ha) | SETVI phytotoxicity rating ([10]; 250 g ai/ha)
70: CASOB phytotoxicity rating ([17]; 63 g ai/ha)
100: phytotoxicity rating SETVI ([3]; 250 g ai/ha) | phytotoxicity rating CHEAL ([4]; 63 g ai/ha) | phytotoxicity rating CHEAL ([4]; 250 g ai/ha) | phytotoxicity rating IPOHE ([6]; 250 g ai/ha) | phytotoxicity rating ABUTH ([8]; 250 g ai/ha) | CHEAL phytotoxicity rating ([11]; 63 g ai/ha) | CHEAL phytotoxicity rating ([11]; 250 g ai/ha) | AMARE phytotoxicity rating ([12]; 63 g ai/ha) | AMARE phytotoxicity rating ([12]; 250 g ai/ha) | IPOHE phytotoxicity rating ([14]; 63 g ai/ha) | ABUTH phytotoxicity rating ([16]; 63 g ai/ha) | ABUTH phytotoxicity rating ([16]; 250 g ai/ha) | CASOB phytotoxicity rating ([17]; 250 g ai/ha) | phytotoxicity rating AMARE ([18]; 250 g ai/ha)
20: RICE phytotoxicity rating (crop damage) ([2]; 63 g ai/ha) | phytotoxicity rating IPOHE ([6]; 63 g ai/ha) | ECHCG phytotoxicity rating ([15]; 250 g ai/ha)
10: CORN phytotoxicity rating (crop damage) ([1]; 63 g ai/ha) | phytotoxicity rating ECHCG ([7]; 63 g ai/ha) | phytotoxicity rating CASOB ([9]; 63 g ai/ha) | DIGSA phytotoxicity rating ([13]; 250 g ai/ha)
30: phytotoxicity rating ECHCG ([7]; 250 g ai/ha)
0: DIGSA phytotoxicity rating ([13]; 63 g ai/ha) | ECHCG phytotoxicity rating ([15]; 63 g ai/ha) | phytotoxicity rating CORN (crop damage) ([19]; 63 g ai/ha) | phytotoxicity rating CORN (crop damage) ([19]; 250 g ai/ha) | phytotoxicity rating RICE (crop damage) ([20]; 63 g ai/ha)
35: phytotoxicity rating RICE (crop damage) ([20]; 250 g ai/ha)
15: SETVI phytotoxicity rating ([10]; 63 g ai/ha)
80: phytotoxicity rating SETVI ([3]; 63 g ai/ha)
60: phytotoxicity rating DIGSA ([5]; 63 g ai/ha) | phytotoxicity rating CASOB ([9]; 250 g ai/ha)
95: phytotoxicity rating DIGSA ([5]; 250 g ai/ha) | IPOHE phytotoxicity rating ([14]; 250 g ai/ha) | phytotoxicity rating AMARE ([18]; 63 g ai/ha)
